We go through 2 compounds from publication PMC7026080, “Phenotypic high-throughput screening platform identifies novel chemotypes for necroptosis inhibition” (Cell Death Discovery, 2020).

Series [1] has as its system BV2 cells. The series can be described thus: Necroptosis protection in BV2 cells (Z-VAD-FMK), 24 h. The following applies: compounds at 10 μM, 25 μM Z-VAD-FMK. The series is classed as cell-based, murine. As for the experimental part: (§1) Necroptosis inhibition properties were further examined using two additional cellular models of regulated necrosis. First, in human adenocarcinoma HT29 cells, and then in immortalized murine microglial BV2 cells, where we co-incubated a mixture of human or murine TNF-α, Smac mimetic […], pan-caspase inhibitor Z-VAD-FMK[29] or Z-VAD-FMK alone, and tested compounds at 10 μM for 24 h. […] In parallel, preliminary data for compound liver toxicity was extrapolated using HepG2 cells.
(§2) Fig. 3 Secondary-stage cascade for hit validation and compound refinement for further studies. a Compound ability to prevent necroptosis execution in HT29 cells co-incubated with 20 ng/mL hTNF-α (T) together with 250 nM Smac mimetic BV6 (S) and […] Z-VAD-FMK (Z), and selected compounds at 10 μM for 24 h. b Selected compound ability to prevent necroptosis execution in BV2 cells co-incubated with 25 μM Z-VAD-FMK (Z) and compounds at 10 μM for 24 h. c Selected compound toxicity evaluation in HepG2 cells incubated with test compounds at 100 and 50 μM for 24 h. Data represent mean values ± SEM of three independent experiments normalized to untreated control. Cell viability was assessed using a luminescence-based readout for AK release and ATP production, and a colorimetric-based readout for LDH release and MTS metabolism. ns, not significant; *p < 0.05, ***p < 0.001.
(§3) Cell treatments and viability assays. […]

In series [2] the test system is HT29 cells. The series can be described thus: Necroptosis protection in HT29 cells (TNF-α + Smac mimetic + Z-VAD-FMK), 24 h. Type of series: cell-based, human. Conditions: compounds at 10 μM, hTNF-α + Smac mimetic + Z-VAD-FMK. As for the experimental part: as §1, §2, §3
Series [3] can be described thus: Rat hepatic clearance (in vitro). Type of series: in vitro ADME.

For the compound `CN1C(=O)C(Cc2c[nH]c3ccccc23)NC1=S` (stereo not drawn) [Nec-1, necrostatin-1], the “Protection from necroptosis execution in BV2 cells” value in series [1] is listed as “complete protection against necroptosis execution”. The “Protection from necroptosis in HT29 cells (membrane integrity by AK and LDH release, ATP levels)” value in series [2] was “completely rescued membrane integrity and ensured metabolic cell viability”. For `O=C(c1cnn(Cc2ccccc2)c1)N1CCOc2ccccc2C1` [SN-6109], the “Rat hepatic clearance (in vitro) rate” value in series [3] is 87 μL/min/1E6.
